The term IC50 denotes the concentration that gives 50% inhibition. Read a high IC50 as a need for much substance.

Data on four compounds can be found in ChEMBL document CHEMBL1141463, “In vitro anti-inflammatory activity of 3-O-methyl-flavones isolated from Siegesbeckia glabrescens” (Bioorg Med Chem Lett, 2008).

Activity calls are given as the source filed them. The calls are words filed in the database; no cut-off is given here.

The nature of experiment [1]: Peroxynitrite scavenging activity assessed as inhibition of DHR 123 oxidation. The format is functional.
Experiment [2] has as its system BV-2. Nature of the experiment: Inhibition of LPS-induced NO production in mouse BV2 cells. The class given is functional, cell-based.
Experiment [3] deals with BV-2. Put plainly: Decrease in iNOS protein expression in LPS-activated mouse BV2 cells at 20 uM. The class given is functional, cell-based.

Regarding `CC(C)(S)[C@@H](N)C(=O)O`, the SC50 in experiment [1] came to 5.13 µM.
As to `COc1c(-c2ccc(O)c(O)c2)oc2cc(O)cc(O)c2c1=O` [3-O-METHYLQUERCETIN], the SC50 in experiment [1] worked out at 0.77 µM. The same compound gave an IC50 with BV-2 [2] of 3.8 µM. Further, the result in the experiment on BV-2 [3] was Active.
Compound `O=c1c(O)c(-c2ccc(O)c(O)c2)oc2cc(O)cc(O)c12` [QUERCETIN] had an IC50 in the experiment on BV-2 [2] of 29.6 µM.
`CNC(=N)NCCC[C@H](N)C(=O)O` [TILARGININE] registered an IC50 with BV-2 [2] of 13.2 µM.
